One may read the IC50 as the concentration that gives 50% inhibition. The EC50 is the concentration that produces a half-maximal response. For orientation: CC50 means the concentration giving 50% cytotoxicity. Usually AC50 stands for the concentration giving half of the maximal activity seen.

Experiment [1] deals with T1, Carboxy-terminal domain RNA polymerase II polypeptide A small phosphatase 1 (Homo sapiens, UniProt Q9GZU7).
T1 sequence (Q9GZU7 whole entry): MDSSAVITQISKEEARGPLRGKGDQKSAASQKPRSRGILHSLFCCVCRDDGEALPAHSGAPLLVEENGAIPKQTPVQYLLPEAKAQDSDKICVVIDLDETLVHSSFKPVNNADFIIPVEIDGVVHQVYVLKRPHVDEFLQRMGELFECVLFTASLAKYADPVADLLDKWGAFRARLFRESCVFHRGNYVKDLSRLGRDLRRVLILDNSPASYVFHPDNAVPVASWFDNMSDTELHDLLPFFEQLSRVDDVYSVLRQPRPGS
As to the kind of experiment: CTDSP1 inhibitors, concentration-response, biochemical, absorbance readout, ultra-high-throughput screen actives (AID 540297). In kind it is functional.

Experiment [2] deals with T2, Streptokinase A (Streptococcus pyogenes serotype M1, UniProt P10520).
T2 sequence (P10520 whole entry): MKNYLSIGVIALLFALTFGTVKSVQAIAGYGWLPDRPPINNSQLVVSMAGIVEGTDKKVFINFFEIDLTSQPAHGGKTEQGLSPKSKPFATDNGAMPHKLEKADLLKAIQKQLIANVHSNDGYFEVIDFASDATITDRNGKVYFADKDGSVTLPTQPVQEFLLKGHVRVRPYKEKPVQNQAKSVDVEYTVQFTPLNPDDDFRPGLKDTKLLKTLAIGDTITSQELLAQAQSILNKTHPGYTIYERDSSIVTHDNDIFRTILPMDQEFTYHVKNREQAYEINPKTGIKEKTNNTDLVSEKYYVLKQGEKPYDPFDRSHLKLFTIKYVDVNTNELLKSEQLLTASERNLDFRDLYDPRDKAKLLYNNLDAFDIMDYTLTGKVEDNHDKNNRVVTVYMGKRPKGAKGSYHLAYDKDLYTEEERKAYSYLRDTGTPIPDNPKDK
As to the kind of experiment: viability-normalized secreted streptokinase activity reduction – plasminogen activation absorbance, OD405, dose response (AID 1914).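 Also: secreted streptokinase activity via plasminogen activation per viability signal from cell pellet.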 It counts as functional, Streptococcus pyogenes M1 GAS.

The test system of experiment [3] is Streptococcus sp. 'group A'. Kind of experiment: Streptococcus pyogenes SK(-)GAS viability under kanamycin – luminescence, BacTiterGlo, confirmation, counter-screen for streptokinase expression inhibitor project, dose response (AID 1900). In kind it is functional, organism-based. (A counterscreen serves to expose hits that act by an unwanted route or on another target.)

For experiment [4], the system named is Streptococcus. Kind of experiment: GAS UMAA2166 growth inhibition – luminescence, BacTiterGlo, counter-screen for streptokinase expression inhibitor project, dose response (AID 1915).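 Also: potency for reduction of bacterial viability or growth.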 In kind it is functional, organism-based.
The test system of experiment [5] is Vero. Kind of experiment: cells. The conditions noted are these: Chlorocebus sabaeus. It counts as functional.
Experiment [6] deals with Heat shock protein HSP 90-alpha (Homo sapiens, UniProt P07900). It counts as functional, organism-based.
The target of experiment [7] is T3, Short transient receptor potential channel 4 (Mus musculus, UniProt Q9QUQ5).
T3 sequence (Q9QUQ5 whole entry): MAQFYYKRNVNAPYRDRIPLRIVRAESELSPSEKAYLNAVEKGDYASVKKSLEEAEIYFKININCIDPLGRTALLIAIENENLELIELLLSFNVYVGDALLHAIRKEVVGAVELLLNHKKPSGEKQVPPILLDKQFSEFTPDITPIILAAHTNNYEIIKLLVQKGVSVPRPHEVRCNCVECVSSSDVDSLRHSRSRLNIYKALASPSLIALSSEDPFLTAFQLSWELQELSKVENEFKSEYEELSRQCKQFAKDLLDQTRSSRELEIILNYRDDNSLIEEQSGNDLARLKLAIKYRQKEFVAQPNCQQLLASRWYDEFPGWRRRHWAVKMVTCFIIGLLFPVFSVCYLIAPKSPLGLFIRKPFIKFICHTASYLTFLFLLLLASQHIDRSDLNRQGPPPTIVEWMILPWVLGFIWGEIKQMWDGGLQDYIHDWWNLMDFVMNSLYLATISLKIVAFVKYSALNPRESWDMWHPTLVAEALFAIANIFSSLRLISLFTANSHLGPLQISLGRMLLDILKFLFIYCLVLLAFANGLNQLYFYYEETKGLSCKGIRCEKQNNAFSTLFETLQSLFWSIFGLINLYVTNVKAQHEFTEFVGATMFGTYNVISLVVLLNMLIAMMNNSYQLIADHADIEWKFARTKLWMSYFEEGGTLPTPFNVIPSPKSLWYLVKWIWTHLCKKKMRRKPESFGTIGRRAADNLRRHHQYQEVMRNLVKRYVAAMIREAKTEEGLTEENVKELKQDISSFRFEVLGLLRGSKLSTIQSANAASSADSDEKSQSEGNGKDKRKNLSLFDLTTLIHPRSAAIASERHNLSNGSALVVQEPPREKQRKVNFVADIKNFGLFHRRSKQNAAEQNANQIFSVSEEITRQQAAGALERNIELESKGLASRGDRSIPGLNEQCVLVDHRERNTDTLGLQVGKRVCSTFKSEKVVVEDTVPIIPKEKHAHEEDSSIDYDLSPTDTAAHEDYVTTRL
As to the kind of experiment: calcium entry via TRPC4 opening agents – cell-based, HEK293 TRPC4/mu-opioid, Fluo-4 calcium, dose response (AID 434937). It counts as functional.

Experiment [8] deals with BJ. As to the kind of experiment: BJ-TERT-LT-ST fibroblast viability loss – cell-based, RAS-independent, luminescence, dose response (AID 1935).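 Also: BJ fibroblasts immortalized with TERT plus LT and ST oncogenes.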 In kind it is functional. The settings on record: Homo sapiens.
For experiment [9], the system named is BJ. Kind of experiment: cells. In kind it is functional, cell-based. The settings on record: Homo sapiens.
Experiment [10] relates to BJ. Kind of experiment: BJ-TERT fibroblast viability loss – cell-based, RAS-independent, luminescence, dose response (AID 1933). The conditions noted are these: Homo sapiens. It counts as functional.
Experiment [11] in a line: HEK-293T cell viability reduction – luminescence, B-cell screen hits, cytotoxicity control for BCR NF-kB inhibitor project, dose response (AID 489021).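 Also: HEK-293T cells carrying an NF-kB luciferase reporter; cells exposed to compound for about 14 hours before viability readout.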 It counts as functional, cell-based.
Experiment [12] can be described thus: DRD fibroblast viability loss – cell-based, non-viral oncogenic, luminescence, dose response (AID 1934). The settings on record: Homo sapiens. In kind it is functional.
A short description of experiment [13]: viability of uninfected HEp-2 cells – cell-based, HTS, cytotoxicity control for RSV inhibitor project, dose response (AID 2410). In kind it is functional. The conditions noted are these: human respiratory syncytial virus.
Experiment [14] concerns the target T4, Caspase-6 (Homo sapiens, UniProt P55212).
T4 sequence (P55212 whole entry): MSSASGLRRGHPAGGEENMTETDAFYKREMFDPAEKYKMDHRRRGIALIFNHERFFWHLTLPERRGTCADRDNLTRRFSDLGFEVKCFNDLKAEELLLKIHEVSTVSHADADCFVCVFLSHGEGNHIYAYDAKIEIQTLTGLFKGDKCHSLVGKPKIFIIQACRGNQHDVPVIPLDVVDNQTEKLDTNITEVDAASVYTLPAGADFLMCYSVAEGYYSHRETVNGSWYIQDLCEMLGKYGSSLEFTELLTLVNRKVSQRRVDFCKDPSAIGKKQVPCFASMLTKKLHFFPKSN
As to the kind of experiment: inhibition of CASP6 peptide cleavage – biochemical, VEID-R110 fluorescence, cherry-pick, dose response (AID 720632).

Experiment [15] addresses Large T antigen (Simian virus 40, UniProt P03070). In kind it is functional, Betapolyomavirus macacae.
The target of experiment [16] is Luciferin 4-monooxygenase (Photinus pyralis, UniProt P08659). Kind of experiment: inhibition of purified Photinus pyralis luciferase – biochemical, luminescence, dose response (AID 1891).
Sequence of Luciferin 4-monooxygenase (P08659 whole entry): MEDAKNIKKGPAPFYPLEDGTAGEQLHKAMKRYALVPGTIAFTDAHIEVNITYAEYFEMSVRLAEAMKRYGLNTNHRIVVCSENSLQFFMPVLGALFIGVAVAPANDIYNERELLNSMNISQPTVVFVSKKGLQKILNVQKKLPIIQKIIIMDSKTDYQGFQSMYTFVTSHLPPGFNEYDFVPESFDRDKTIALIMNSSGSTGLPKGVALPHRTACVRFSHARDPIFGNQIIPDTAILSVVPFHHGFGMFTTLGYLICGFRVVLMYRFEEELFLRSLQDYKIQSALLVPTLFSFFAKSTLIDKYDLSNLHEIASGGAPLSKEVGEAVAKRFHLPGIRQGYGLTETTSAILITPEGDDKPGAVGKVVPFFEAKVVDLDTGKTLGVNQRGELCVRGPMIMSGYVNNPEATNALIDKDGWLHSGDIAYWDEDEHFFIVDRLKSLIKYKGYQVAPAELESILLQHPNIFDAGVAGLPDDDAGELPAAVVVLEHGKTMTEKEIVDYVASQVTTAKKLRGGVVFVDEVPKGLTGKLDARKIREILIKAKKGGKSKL
Experiment [17] in a line: Luminescence Cell-Based Dose Confirmation HTS to Identify Inhibitors of Platelet Dense Granule Release. [Related pubchem assays: 1663 (Primary HTS), 1678 (Summary of Project)]. It counts as functional.
Experiment [18] addresses T5, Rac GTPase-activating protein 1 (Homo sapiens, UniProt Q9H0H5).
T5 sequence (Q9H0H5 whole entry): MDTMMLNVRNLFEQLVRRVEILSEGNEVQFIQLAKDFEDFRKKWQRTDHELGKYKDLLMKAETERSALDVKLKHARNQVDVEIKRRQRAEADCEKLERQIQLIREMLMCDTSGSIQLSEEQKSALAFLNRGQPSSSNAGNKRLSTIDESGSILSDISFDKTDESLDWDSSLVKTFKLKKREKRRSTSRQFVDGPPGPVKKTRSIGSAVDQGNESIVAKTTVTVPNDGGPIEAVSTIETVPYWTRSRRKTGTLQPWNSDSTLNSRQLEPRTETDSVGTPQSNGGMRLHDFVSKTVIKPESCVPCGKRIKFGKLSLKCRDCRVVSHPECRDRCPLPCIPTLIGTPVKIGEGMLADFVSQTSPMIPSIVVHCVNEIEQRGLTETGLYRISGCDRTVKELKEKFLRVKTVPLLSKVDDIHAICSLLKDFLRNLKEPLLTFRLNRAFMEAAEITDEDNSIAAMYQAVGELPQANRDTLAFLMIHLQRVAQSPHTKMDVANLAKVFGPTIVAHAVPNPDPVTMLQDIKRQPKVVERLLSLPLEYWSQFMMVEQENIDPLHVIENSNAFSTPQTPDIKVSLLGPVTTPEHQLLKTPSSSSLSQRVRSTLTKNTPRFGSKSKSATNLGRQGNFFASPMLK
Kind of experiment: blockers of MgcRacGAP-driven Rac1 GTP hydrolysis – biochemical, ADP Hunter fluorescence, primary and confirmatory, confirmation (AID 624330). It counts as functional.

Experiment [19] can be described thus: reduction of Shn3 3'UTR-driven luciferase in osteoblasts – cell-based, Clone20 osteoblasts, firefly luciferase, cherry-picked, dose response (AID 624132).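 Also: firefly luciferase luminescence from reporter carrying the Shn3 3'UTR in osteoblasts.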 In kind it is functional.
Experiment [20] can be described thus: loss of viability in HepG2 cells – cell-based, CellTiter-Glo, cherry-picked, cytotoxicity control for Shn3 inhibitor project, dose response (AID 624134). In kind it is functional. In general terms: Cellular ATP, detected with luciferase, serves as a proxy for viable cell number.
Experiment [21] in a line: Luminescence Cell-Based Dose Retest to Confirm Inhibitors of Cancer Stem Cells. [Related pubchem assays (depositor defined):AID2717, AID2721]. The conditions noted are these: Homo sapiens. In kind it is functional.
Experiment [22] can be described thus: non-specific 3'UTR reporter inhibition in Clone20-Shn3RL – cell-based, Renilla luciferase, cherry-picked, counter-screen for Shn3 inhibitor project, dose response (AID 624133). In kind it is functional.

The source made the active and inactive calls.

Sequence of Large T antigen (P03070 whole entry): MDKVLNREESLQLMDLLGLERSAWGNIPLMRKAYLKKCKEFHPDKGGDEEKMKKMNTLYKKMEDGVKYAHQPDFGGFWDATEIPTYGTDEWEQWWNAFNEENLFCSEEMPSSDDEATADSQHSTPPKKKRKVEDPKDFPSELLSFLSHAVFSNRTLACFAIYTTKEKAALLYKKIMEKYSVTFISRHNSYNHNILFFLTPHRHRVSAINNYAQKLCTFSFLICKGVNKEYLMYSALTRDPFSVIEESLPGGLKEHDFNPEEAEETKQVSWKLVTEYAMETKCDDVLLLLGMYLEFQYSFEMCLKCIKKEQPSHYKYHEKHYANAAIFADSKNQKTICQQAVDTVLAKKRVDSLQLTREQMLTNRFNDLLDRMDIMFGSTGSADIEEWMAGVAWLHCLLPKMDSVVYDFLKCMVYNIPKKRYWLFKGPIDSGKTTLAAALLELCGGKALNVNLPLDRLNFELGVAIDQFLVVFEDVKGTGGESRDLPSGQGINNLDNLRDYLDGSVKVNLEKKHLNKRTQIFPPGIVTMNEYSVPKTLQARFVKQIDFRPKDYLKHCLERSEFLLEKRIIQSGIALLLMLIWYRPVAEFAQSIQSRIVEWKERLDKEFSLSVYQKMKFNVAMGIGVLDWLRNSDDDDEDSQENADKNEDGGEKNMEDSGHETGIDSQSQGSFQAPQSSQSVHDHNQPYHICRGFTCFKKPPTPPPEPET

For the molecule `COc1ccc(-c2nnc(NC(=O)c3cccs3)s2)c(OC)c1`, the IC50 in experiment [1] is 3.57 µM (active).
Take `Cc1oc(-c2ccccc2Cl)nc1Cn1cccc1C1=NC(c2ccccc2)CO1` (stereo not drawn): the EC50 in experiment [2] is > 50 µM (not active); in experiment [3] it was > 150 µM (not active); in [4], > 150 µM (not active). The CC50 in experiment [5] is > 25 µM (active).
In the case of `Cc1ccc(OCC(=O)NNC(=S)NC(=O)C(C)(C)C)c(Br)c1`, the AC50 in experiment [6] is 4.75 µM (active). In experiment [7], the EC50 is 4.73 µM (active).
Consider `CCOc1ccc(/C=C2\SC(=S)N(CCCC(=O)NCCCN3CCOCC3)C2=O)cc1`, for which the EC50 was > 150 µM (not active) in [8], > 150 µM (not active) in [9], 20.1 µM (active) in experiment [10] and > 150 µM (not active) in experiment [12]. Further, the IC50 in experiment [11] is > 80 µM (inactive).
In the case of `Cc1cc(/C=C2\SC(=S)N=C2O)c(C)n1-c1cccc(O)c1`, the concentration giving a half-maximal response (EC50) in experiment [2] is > 150 µM (not active). Moreover, the half-maximal activity concentration (AC50) in experiment [6] is 8.8 µM (active).
Consider `Cc1cccc(NC(=O)CSc2nc3nc(O)cc(O)c3s2)c1`, for which, in [1], the half-inhibitory concentration (IC50) was 15.9 µM (active).
For the molecule `Cc1nc([N+](=O)[O-])c(Sc2nc3cc([N+](=O)[O-])ccc3[nH]2)n1Cc1ccccc1`, the CC50 in experiment [13] was 12.6 µM (active). Also, the IC50 in experiment [11] is > 80 µM (inactive).
On to `CSc1nnc(C)c(/C=C/Nc2ccc(F)cc2F)n1`, for which the half-inhibitory concentration (IC50) in experiment [1] is 13.3 µM (active).
The same measure, in the same setting: the value for `C[Se]C[C@@H](N)C(=O)O` was 15 µM (active).
For `O=c1c2ccccc2[nH]c2ccc(O)cc12`, the concentration at half-maximal activity (AC50) in experiment [14] is 17.7 µM (active). Also, in [15], the half-inhibitory concentration (IC50) was 9.16 µM (active).
Turning to `Cc1cc(-c2nnc(S)n2/N=C/c2c[nH]c3ccccc23)[nH]n1`, the concentration for half-maximal inhibition (IC50) in [15] was 64 µM (active).
Consider `N/C(=N\N=C\c1ccc(O)c(O)c1)c1nonc1N`, for which the concentration giving a half-maximal response (EC50) is 1.67 µM (active) in experiment [16] and 1.74 µM (active) in experiment [17]. In addition, the IC50 in [15] is 23.4 µM (active).
With `Cc1cc(O)ccc1N/C=C1\CCCC1=O`, the half-inhibitory concentration (IC50) in experiment [18] was 22.7 µM (active); in experiment [15], 29.8 µM (active).
As for `CC(C)N(CCC(=O)c1ccc2ccccc2c1)Cc1ccccc1`, the AC50 in experiment [19] is 4.22 µM (active); in [20], > 70 µM (inactive); in experiment [6] it was 9.38 µM (active); in [21] it was 5.58 µM (active); in experiment [22] it was 17.3 µM (active).
For the molecule `CC(C)c1c(O)ccc2c1CC[C@H]1C(C)(C)CCC[C@]21C` [TOTAROL], the half-maximal activity concentration (AC50) in experiment [6] was 3.79 µM (active).

For the origin of these results see ChEMBL document CHEMBL1201862, “PubChem BioAssay data set” (2004).
